Reference: patent publication US10478501B2, “Method of treating disorders using a pharmaceutical composition of oligopeptides” (Merck Patent GmbH, priority 2011, dated 2019)

Columns and labels:
[1] = test system: FaDu (HNSCC) tumor xenografts; experiment: Tumor growth delay of FaDu xenografts with radiation; assay type: in vivo, nude mice
Method: (§1) Methods: Three non-small cell lung carcinoma lines (NSCLCs) (H460, A549 and H1299) and three head and neck squamous cell carcinoma lines (HNSCCs) (FaDu, SCC-15 and SCC-25) cell lines were used for in vitro experiments. Of these, H460 and FaDu were used for in vivo testing when grown as xenografts in nude mice. The effects of cilengitide (1-50 μg/ml, 24 h) on in vitro cell viability was determined by MTS assay and on cellular radiosensitivity by clonogenic cell survival assay after exposing the cells to graded single doses of γ-radiation with or without cilengitide (given 1 h before and continued for 23 h after irradiation). In vivo effect of cilengitide on radioresponse of xenografts was assessed by tumor growth delay. When tumor xenografts reached 7 mm in diameter cilengitide treatment (30 or 60 mg/d/5 or 10 days) was initiated followed by a single dose of 15 Gy local radiation (using ^137Cs γ-ray source), when the tumors reached 8 mm.

[2] = test system: MDA-MB-231 breast cancer bone metastases; experiment: Experimental breast cancer bone metastases in nude rats: volumes of osteolytic lesions and soft tissue components by VCT and MRI; assay type: in vivo, nude rats (RNU strain); settings: for Mean relative values of the OL (osteolytic lesion) volumes, increase compared to initial values at day 30 / Mean relative STC (soft tissue component) volume, increase compared to initial values at day 30: 75 mg/kg i.p. five times per week from day 30
Method: Nude rats (RNU strain) are obtained from Harlan-Winkelmann GmbH (Borchen, Germany) at the age of six weeks and housed in a specific pathogen-free environment in a mini barrier system of the central animal facility. Animals are kept under controlled conditions (21±2° C. room temperature, 60% humidity, 12 h light-dark rhythm) and offered autoclaved food and water ad libitum. Sub-confluent MDAMB-231 cells are harvested using 0.05% Trypsin-EDTA (Gibco®; Invitrogen, Karlsruhe, Germany) counted on a Neubauer's chamber and resuspended in RPMI-1640 to a final concentration of 10^5 cells in 200 μl. Rats are anesthetized using a mixture of nitrous oxide (1 l/min), oxygen (0.5 l/min) and isoflurane (1.5 vol. %). Arterial branches of the right hind leg are dissected and 10^5 cells injected into the superficial epigastric artery as described previously.^28 Bone metastases established and are observed exclusively in the femur, tibia and fibula of the right hind leg. 30 days after cancer cell transplantation, rats (n=24) are randomly divided into two groups, one group receiving the cyclic RGD-peptide inhibitor of αvβ3/αvβ5 integrins (cilengitide, EMD 121974^14, 17, 29; Merck, Darmstadt, Germany) intraperitoneally five times per week (75 mg/kg; n=12 rats) and the other, sham-treated group, serving as a control (n=12 rats). The observation period of all animals is 55 days and no rat in the study dies ahead of schedule.
After the inoculation of cancer cells each rat is imaged at days 30, 35, 45 and 55 using (i) a flat-panel equipped volumetric computed tomograph (Volume CT, Siemens, Germany) and (ii) a 1.5T clinical magnetic resonance scanner (Symphony, Siemens, Erlangen, Germany) equipped with a home-built receive-transmit coil (cylindrical volume resonator with an inner diameter of 83 mm and a usable length of 120 mm). Prior to in vivo imaging with VCT and MRI, rats are anesthetized with nitrous oxide, oxygen and isoflurane as described above.
VCT imaging is obtained using the following parameters: tube voltage 80 kV, tube current 50 mA, scan time 51 s, rotation speed 10 s, frames per second 120, matrix 512×512, and slice thickness 0.2 mm. Image reconstructions are performed using a modified FDK (Feldkamp Davis Kress) cone beam reconstruction algorithm (kernel H80a; Afra, Erlangen, Germany).
T2-weighted imaging is performed using a turbo spin echo sequence (orientation axial, TR 3240 ms, TE 81 ms, matrix 152×256, FOV 90×53.4 mm^2, slice thickness 1.5 mm, 3 averages, scan time 3 min 40 s). For dynamic contrast-enhanced MRI, a saturation recovery turbo flash sequence through the largest diameter of the tumor (orientation axial, TR 373 ms, TE 1.86 ms, matrix 192×144, FOV 130×97.5 mm, slice thickness 5 mm, measurements 512, averages 1, scan time 6 min 55 s) is used. After 20 s baseline, 0.1 mmol/kg Gd-DTPA (Magnevist; Bayer Schering Pharma, Berlin, Germany) is intravenously infused for a time period of 10 s.
Unenhanced VCT images and MRI-acquired T2-weighted images are analyzed using the Medical Imaging Interaction Toolkit (MITK, Heidelberg, Germany) to determine volumes of osteolytic lesions and soft tissue components, respectively. DCE-MRI acquired data is analyzed using the Dynalab workstation (Mevis Research, Bremen, Germany) according to the two-compartment model of Brix to determine the parameters amplitude A and exchange rate constant kep, as described.^23, 30 Briefly, the injected contrast media is distributed in both compartments (intravascular space and extravascular, interstitial space). The accumulation of contrast agent in these compartments over time is characterized by the amplitude A (associated with blood volume), whereas the exchange of contrast agent between the intravascular space and the interstitial space is characterized by the exchange rate constant kep (associated with vessel permeability). […]

A549 = experiment: Cellular radiosensitivity by clonogenic cell survival assay, A549; assay type: cell-based, human; settings: combined with γ-radiation, given 1 h before and continued 23 h after irradiation
Method: as §1

Compound: CC(C)[C@H]1C(=O)N[C@@H](CCCN=C(N)N)C(=O)NCC(=O)N[C@@H](CC(=O)O)C(=O)N[C@H](Cc2ccccc2)C(=O)N1C [Cilengitide, cyclo-(Arg-Gly-Asp-DPhe-NMeVal)]
- enhancement factor of tumor radioresponse (tumor growth delay) ([1]; with single dose of 15 Gy local radiation): 2.0
- antitumor activity as a single agent (tumor growth delay) ([1]; without radiation): no antitumor activity
- Mean relative values of the OL (osteolytic lesion) volumes, increase compared to initial values at day 30 ([2]; day 35 (control 1.9 fold)): 1.5 fold
- Mean relative STC (soft tissue component) volume, increase compared to initial values at day 30 ([2]; day 35 (control 2.3 fold)): 2.2 fold
- Mean relative values of the OL (osteolytic lesion) volumes, increase compared to initial values at day 30 ([2]; day 45 (control 4.5 fold, p<0.05)): 2.4 fold
- Mean relative STC (soft tissue component) volume, increase compared to initial values at day 30 ([2]; day 45 (control 10.4 fold, p<0.05)): 4.9 fold
- Mean relative values of the OL (osteolytic lesion) volumes, increase compared to initial values at day 30 ([2]; day 55 (control 9.7 fold, p<0.01)): 3.5 fold
- Mean relative STC (soft tissue component) volume, increase compared to initial values at day 30 ([2]; day 55 (control 22.5 fold, p<0.01)): 6.3 fold
- rats showing new bone formation under therapy as imaged by VCT ([2]; treatment group, three of 12 rats, not in control animals): 25%
- radiosensitivity enhancement factor (A549): 1.56
